Key:
tracheal muscle = test: Tracheal preparations of the guinea pig, blockade of isoproterenol relaxation; type: cell-based; conditions: for blocking effect of the responses to isoproterenol in the trachea: at concentrations as high as 3×10^-5 mol/l; for selectivity for the cardiac beta 1 adrenoceptor: atria vs trachea, in words
beta adrenoceptor = target: T1, beta adrenoceptor (Cavia porcellus, UniProt H0W3H1); test: Inhibition of the positive chronotropic isoproterenol effect in spontaneously beating guinea pig atrium; type: cell-based
T1 construct: in the spontaneously beating guinea pig atrium; from tissue; host or cells: guinea pig atrium

beta-1 adrenoceptor = target: T2, beta-1 adrenoceptor (Rattus norvegicus, UniProt P18090); test: Inhibition of isoproterenol induced tachycardia in the pithed rat; type: in vivo; conditions: read-out: Effective Dose (ID50)
T2 construct: from tissue; host or cells: heart of the pithed rat, in vivo

[1] = tested on: cardiac contractile force; test: Cardiac contractile force in anaesthetised, vagotomized, spinalised cat; type: in vivo; conditions: in words
Procedure: In the anaesthetised, vagotomized cat spinalised at the level of second cervical vertebrae the compounds exert an increase in cardiac contractile force at a dose of from about 20 to about 2,500 ug/kg i.v. as measured with a strain gauge arch sewn into the left ventricle. The effect may also be measured as a concentration dependent stimulation of the isolated spontaneously beating guinea pig atrium.

T2 sequence (P18090 whole entry): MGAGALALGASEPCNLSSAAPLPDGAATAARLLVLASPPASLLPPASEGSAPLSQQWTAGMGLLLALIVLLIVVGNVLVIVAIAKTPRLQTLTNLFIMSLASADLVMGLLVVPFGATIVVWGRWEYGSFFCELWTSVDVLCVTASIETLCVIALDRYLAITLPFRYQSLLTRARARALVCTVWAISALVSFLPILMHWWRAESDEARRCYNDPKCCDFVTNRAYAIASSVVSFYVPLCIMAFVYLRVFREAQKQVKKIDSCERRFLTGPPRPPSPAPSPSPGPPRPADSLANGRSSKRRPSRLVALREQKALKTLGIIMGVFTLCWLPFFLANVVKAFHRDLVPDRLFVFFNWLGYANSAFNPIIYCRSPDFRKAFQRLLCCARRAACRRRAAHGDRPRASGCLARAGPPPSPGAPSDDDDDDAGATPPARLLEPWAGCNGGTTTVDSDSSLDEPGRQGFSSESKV
T1 sequence (H0W3H1 1-470): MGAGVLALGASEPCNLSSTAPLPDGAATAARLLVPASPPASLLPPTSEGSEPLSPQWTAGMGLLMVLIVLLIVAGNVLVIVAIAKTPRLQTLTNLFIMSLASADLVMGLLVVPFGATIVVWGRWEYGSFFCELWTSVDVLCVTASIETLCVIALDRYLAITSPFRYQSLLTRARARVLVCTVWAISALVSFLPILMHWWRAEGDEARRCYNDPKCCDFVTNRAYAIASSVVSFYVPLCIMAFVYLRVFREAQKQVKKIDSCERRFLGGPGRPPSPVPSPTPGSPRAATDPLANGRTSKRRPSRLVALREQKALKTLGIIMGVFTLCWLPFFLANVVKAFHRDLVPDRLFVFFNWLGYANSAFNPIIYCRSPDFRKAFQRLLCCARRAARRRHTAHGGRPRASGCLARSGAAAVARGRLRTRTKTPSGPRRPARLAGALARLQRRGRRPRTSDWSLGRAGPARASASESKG

Kb (beta adrenoceptor) | ED50 (beta-1 adrenoceptor) | Compound | blocking effect of the responses to isoproterenol in the trachea (tracheal muscle) | selectivity for the cardiac beta 1 adrenoceptor (tracheal muscle) | balance between the agonistic and antagonistic activities [1] | selectivity (tracheal muscle; guinea pig atria vs trachea, known selective beta adrenoceptor blockers)
50 nM | 0.02 mg/kg | CCCOCCOc1ccc(OCC(O)CNCCNC(=O)C2CCOCC2)c(F)c1 (centres unmarked) [Example 2, 1-(2-fluoro-4-(2-propoxy-ethoxy)phenoxy)-3-(2-(tetrahydropyran-4-yl-carbonylamino)ethylamino)-2-propanol] | no blocking effect | virtually absolute selectivity |  | 
 |  | O=C(NCCNCC(O)COc1ccc(O)cc1F)C1CCOCC1 (centres unmarked) [Example 33, 1-(2-fluoro-4-hydroxyphenoxy)-3-[2-(tetrahydropyran-4-ylcarbonylamino)ethylamino]-2-propanol] |  |  | particularly favourable | 
70 nM | 0.02 mg/kg | CCCOCCOc1ccc(OCC(O)CNCCNC(=O)C2CCOCC2)c(C#N)c1 (centres unmarked) [Example 8] |  |  |  | 
30 nM | 0.03 mg/kg | O=C(NCCNCC(O)COc1ccc(OCCOCC2CCCC2)cc1)C1CCOCC1 (centres unmarked) [Example 5] | no blocking effect | virtually absolute selectivity |  | 
30 nM | 0.01 mg/kg | C[C@H](CNC(=O)C1CCOCC1)NCC(O)COc1ccc(OCCOCC2CCCC2)cc1 (some centres unmarked) [Example 15] | no blocking effect | virtually absolute selectivity |  | 
50 nM | 0.02 mg/kg | CC(C)COCCOc1ccc(OCC(O)CNCCNC(=O)C2CCOCC2)cc1 (centres unmarked) [Example 4] | no blocking effect | virtually absolute selectivity |  | 
40 nM | 0.003 mg/kg | CCCOCCOc1ccc(OC[C@@H](O)CNC(C)CNC(=O)C2CCOCC2)cc1 (stereo partly drawn) [Example 9, (S)-1-(4-(2-propoxyethoxy)phenoxy)-3((R,S)-2-(tetrahydropyran-4-ylcarbonylamino)-1-methylethylamino)-2-propanol] |  |  | particularly favourable | 
70 nM | 0.005 mg/kg | CC(C)COCCOc1ccc(OCC(O)CN[C@H](C)CNC(=O)C2CCOCC2)cc1 (some centres unmarked) [Example 21] |  |  |  | 
120 nM | 0.1 mg/kg | Cc1cc(OCCOCC2CC2)ccc1OCC(O)CNCCNC(=O)C1CCOCC1 (centres unmarked) [Example 1, 1-(2-Methyl-4-(2-cyclopropylmethoxyethoxy)-phenoxy)-3-(2-(tetrahydropyran-4-yl-carbonylamino)ethylamino)-2-propanol] |  |  |  | 
160 nM | 0.02 mg/kg | CCCOCCOc1ccc(OC[C@@H](O)CN[C@@H](C)CNC(=O)C2CCOCC2)cc1 [Example 11, (S)-1-(4-(2-propoxyethoxy)phenoxy)-3-((S)-2-(tetrahydropyran-4-yl-carbonylamino)-1-methylethylamino)-2-propanol] |  |  |  | 
20 nM | 0.03 mg/kg | O=C(NCCNCC(O)COc1ccc(OCCOCCc2ccc(F)cc2)cc1)C1CCOCC1 (centres unmarked) [Example 6] | no blocking effect | virtually absolute selectivity |  | 
80 nM | 0.015 mg/kg | CCCOCCOc1ccc(OCC(O)CNCCNC(=O)C2CCOCC2)cc1 (centres unmarked) [Example 3] | no blocking effect | virtually absolute selectivity |  | 
200 nM | 0.02 mg/kg | O=C(NCCNCC(O)COc1ccc(OCCOCc2ccc(F)cc2)cc1)C1CCOCC1 (centres unmarked) [Example 7] |  |  |  | 
30 nM | 0.0006 mg/kg | CCCOCCOc1ccc(OC[C@@H](O)CN[C@H](C)CNC(=O)C2CCOCC2)cc1 [Example 10, (S)-1-(4-(2-propoxyethoxy)phenoxy)-((R)-2-(tetrahydropyran-4-ylcarbonylamino)-1-methylethylamino)-2-propanol] |  |  |  | 
 |  | CC(C)NCC(O)COc1ccc(CC(N)=O)cc1 (centres unmarked) [Atenolol, reference compound] |  |  |  | 20

Reference: US5242943A, “3-aminopropoxyphenyl derivatives, their preparation and pharmaceutical compositions containing them” (Louis; William J., priority 1984, dated 1993)
